Laboratory results published in patent US12350246B2 (Cancer Prevention Pharmaceuticals, Inc., priority 2015, dated 2025).
Counter-ions that a name gives are not always drawn.

Columns and labels:
[1] = tested on: COX; details: cited from earlier work
[2] = in vivo; cited from earlier work
[3] = Drug excipient compatibility: appearance and HPLC assay; assay type: physicochemical; details: 40° C./75% RH, four weeks
Protocol: A non-cGMP drug excipient compatibility study for eflornithine HCl/sulindac combination tablet was conducted. Appearance, HPLC Assay and XRPD properties were evaluated using a series of samples. The excipients that were tested included PVP, HPMC, lactose, EXPLOTAB™, Ac-Di-Sol®, PROSOLV®, STARCH 1500®, and OPADRY® Yellow. […] Total mass of most samples was approximately 750 mg. Preparation involved weigh off of components into 20cc scintillation vials, closed and vortexed for approximately 30 seconds. The samples were then stored in a 40° C./75% RH stability chamber for four weeks. Lids on the vials were loosely secured and were protected from light while stored in the chamber. Appearance observations were conducted by visual examination of the vials prepared for HPLC analysis. […] Excipient compatibility samples were analyzed using a method capable of detecting both actives, cflornithine and sulindac (FIG. 4A). The method employs a gradient reverse phase HPLC with Ultraviolet (UV) detection at 195 nm.

[4] = Drug excipient compatibility: XRPD; assay type: physicochemical; details: 40° C./75% RH, four weeks
Protocol: A non-cGMP drug excipient compatibility study for eflornithine HCl/sulindac combination tablet was conducted. Appearance, HPLC Assay and XRPD properties were evaluated using a series of samples. The excipients that were tested included PVP, HPMC, lactose, EXPLOTAB™, Ac-Di-Sol®, PROSOLV®, STARCH 1500®, and OPADRY® Yellow. […] Total mass of most samples was approximately 750 mg. Preparation involved weigh off of components into 20cc scintillation vials, closed and vortexed for approximately 30 seconds. The samples were then stored in a 40° C./75% RH stability chamber for four weeks. Lids on the vials were loosely secured and were protected from light while stored in the chamber. XRPD analysis was conducted on a Bruker AXS D8 Advance system with a Bragg-Brentano configuration using the CuKα radiation. Samples were analyzed at room temperature using the following parameters: 40 kV, 40 mA, 1° divergence and antiscatter slits, a method measuring in continuous mode from 2-40°2Θ with a 0.05° step and 1 second/step time. Between 3 and 25 mg of sample was analyzed using a rotating, top-filled steel sample holder in a nine-position auto-sampler accessory. The system was calibrated using traceable standards.

[5] = tested on: tumor putrescine levels; details: eflornithine infusion, without suppressing peripheral platelet counts; cited from earlier work
[6] = tested on: tumors harboring Ki-ras mutations; details: reduced from 90%; cited from earlier work
[7] = tested on: prostoglandin E2 (PGE2) levels in flat mucosa; details: 300 mg/day, one month; cited from earlier work
[8] = cited from earlier work
[9] = in vivo; cited from earlier work; remark: listed apart in the source

CC1=C(CC(=O)O)c2cc(F)ccc2/C1=C\c1ccc(S(C)(=O)=O)cc1 [Sulindac sulfone]
COX-inhibitory activity [1]: lacks COX-inhibitory activity

Cc1ccc(-c2cc(C(F)(F)F)nn2-c2ccc(S(N)(=O)=O)cc2)cc1 [celecoxib, 4-[5-(4-Methylphenyl)-3-(trifluoromethyl)pyrazol-1-yl]benzenesulfonamide]
Increase in rates of heart and blood vessel disease [2]: 30% | Risks of gastrointestinal side effects [2]: greater than 80%

NCCCC(N)(C(=O)O)C(F)F (stereo not drawn) [eflornithine HCl]
Compatibility with excipients (appearance, HPLC assay) [3]: compatible with the potential excipients | Compatibility with excipients (XRPD) [4]: compatible with the potential excipients

NCCCC(N)(C(=O)O)C(F)F (stereo not drawn) [eflornithine, 2,5-diamino-2-(difluoromethyl)pentanoic acid]
Decrease in tumor putrescine levels [5]: 90% | Tumors harboring Ki-ras mutations [6]: 36%

CC(C)Cc1ccc(C(C)C(=O)O)cc1 (stereo not drawn) [ibuprofen]
PGE2 levels in flat mucosa [7]: significant decrease

CN1C(C(=O)Nc2ccccn2)=C(O)c2ccccc2S1(=O)=O [piroxicam, 4-hydroxy-2-methyl-N-2-pyridyl-2H-1,2-benzothiazine-3-carboxamide 1,1-dioxide]
Tumors harboring Ki-ras mutations [6]: 25%

CC1=C(CC(=O)O)c2cc(F)ccc2/C1=C\c1ccc([S+](C)[O-])cc1 (stereo not drawn) [sulindac, (Z)-5-fluoro-2-methyl-1-((4-(methylsulfinyl)phenyl)methylene)-1H-indene-3-acetic acid]
Compatibility with excipients (appearance, HPLC assay) [3]: compatible with the potential excipients | Compatibility with excipients (XRPD) [4]: compatible with the potential excipients | Fraction of the drug absorbed ([8]; after oral administration): about 90% | Time to peak plasma levels ([8]; fasting patients): about 2 hours | Mild gastrointestinal effects, patients affected [9]: ~20% | Skin rash and pruritus, patients affected [9]: 5%
